Active and inactive are the calls of the source. The rule behind the calls is not given here.
Key:
[1] = Toxicity in BALB/c nude mouse xenografted with human SW1990 cells assessed as animal mortality at 30 to 60 mg/kg, ip for 21 days consecutively; type: organism-based; conditions: in vivo, 504 h, dose 30-60 mg/kg, time 21 day
[2] = tested on: SW1990; test: Induction of apoptosis in human SW1990 cells assessed as late apoptotic cells at 2 uM incubated for 6 days by Annexin V/PI staining based flow cytometry (reference value: 2.01 %); type: functional; conditions: time 6 day
[3] = tested on: SW1990; test: Induction of cell cycle arrest at G0/G1 phase in human SW1990 cells at 2 uM incubated for 6 days by PI staining based flow cytometry (reference value: 49.65 %); type: functional; conditions: time 6 day
[4] = Toxicity in BALB/c nude mouse xenografted with human SW1990 cells assessed as drug tolerance at 30 to 60 mg/kg, ip for 21 days consecutively; type: organism-based; conditions: in vivo, 504 h, dose 30-60 mg/kg, time 21 day
[5] = tested on: SW1990; test: Upregulation of E-cadherin level in human SW1990 cells at 0.5 to 2 uM by Western blot analysis; type: functional, cell-based; conditions: dose 0.5-2 µM
[6] = tested on: SW1990; test: Antitumor activity against human SW1990 cells xenografted in BALB/c nude mouse model assessed as change in agglutination treated intraperitoneally for 21 days consecutively by H and E staining based analysis; type: functional; conditions: dose 30-60 mg/kg, route ip, time 21.0 day
[7] = tested on: SW1990; test: Antiproliferative activity against human SW1990 cells assessed as inhibition cell proliferation incubated for 6 days by MTT assay; type: functional, cell-based; conditions: SW1990, 144 h
[8] = tested on: SW1990; test: Induction of apoptosis in human SW1990 cells assessed as late apoptotic cells at 0.5 uM incubated for 6 days by Annexin V/PI staining based flow cytometry (reference value: 2.01 %); type: functional; conditions: time 6 day
[9] = tested on: SW1990; test: Induction of apoptosis in human SW1990 cells assessed as necrotic cells at 2 uM incubated for 6 days by Annexin V/PI staining based flow cytometry (reference value: 0.50 %); type: functional; conditions: time 6 day
[10] = target: T1, Serine/threonine-protein kinase DCLK1 (Homo sapiens) (UniProt O15075); test: Inhibition of DCLK1 (unknown origin) at 200 nM preincubated for 10 mins followed by substrate/ATP addition measured after 60 mins by mobility shift assay relative to control; conditions: time 70.0 min
T1 sequence (whole entry): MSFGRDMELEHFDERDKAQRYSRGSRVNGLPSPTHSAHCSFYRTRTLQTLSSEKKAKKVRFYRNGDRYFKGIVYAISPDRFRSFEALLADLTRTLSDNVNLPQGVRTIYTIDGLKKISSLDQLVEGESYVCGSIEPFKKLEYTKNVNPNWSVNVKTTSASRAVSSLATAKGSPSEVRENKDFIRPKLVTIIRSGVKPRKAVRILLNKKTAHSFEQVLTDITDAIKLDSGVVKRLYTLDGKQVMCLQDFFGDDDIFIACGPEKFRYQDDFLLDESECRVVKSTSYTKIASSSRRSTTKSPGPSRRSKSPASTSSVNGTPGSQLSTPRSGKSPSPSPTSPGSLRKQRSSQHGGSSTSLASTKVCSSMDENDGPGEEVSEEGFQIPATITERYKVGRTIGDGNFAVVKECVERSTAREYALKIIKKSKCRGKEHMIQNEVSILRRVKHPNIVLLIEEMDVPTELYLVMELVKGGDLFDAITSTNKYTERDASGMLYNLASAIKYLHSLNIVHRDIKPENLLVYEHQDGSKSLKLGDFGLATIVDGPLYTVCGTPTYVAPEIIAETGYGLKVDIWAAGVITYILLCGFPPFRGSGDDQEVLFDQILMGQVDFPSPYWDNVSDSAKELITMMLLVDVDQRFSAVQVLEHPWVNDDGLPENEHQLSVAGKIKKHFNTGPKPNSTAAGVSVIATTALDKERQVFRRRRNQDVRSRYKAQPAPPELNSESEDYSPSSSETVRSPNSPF

[11] = tested on: SW1990; test: Induction of apoptosis in human SW1990 cells assessed as necrotic cells at 1 uM incubated for 6 days by Annexin V/PI staining based flow cytometry (reference value: 0.50 %); type: functional; conditions: time 6 day
[12] = tested on: SW1990; test: Antitumor activity in human SW1990 cells assessed as decrease in CD133 level at 0.5 to 2 uM by immunofluorescence based analysis; type: functional, cell-based; conditions: dose 0.5-2 µM
[13] = Metabolic stability in mouse liver microsomes assessed as half life at 1 uM preincubated for 10 mins followed by NADPH measured for 60 mins by LC-MS/MS analysis; type: ADME, Microsome; conditions: time 70 min
[14] = Toxicity in BALB/c nude mouse xenografted with human SW1990 cells assessed as change in body weight at 30 to 60 mg/kg, ip for 21 days consecutively; type: organism-based; conditions: in vivo, 504 h, dose 30-60 mg/kg, time 21 day
[15] = tested on: SW1990; test: Induction of cell cycle arrest at S phase in human SW1990 cells at 1 uM incubated for 6 days by PI staining based flow cytometry (reference value: 21.20 %); type: functional; conditions: time 6 day
[16] = tested on: SW1990; test: Antitumor activity against human SW1990 cells xenografted in BALB/c nude mouse model assessed as tumor growth inhibition treated intraperitoneally for 21 days consecutively; type: functional; conditions: dose 30-60 mg/kg, route ip, time 21.0 day
[17] = tested on: SW1990; test: Inhibition of cell invasion in human SW1990 cells at 0.5 to 2 uM by transwell assay; type: functional, cell-based; conditions: dose 0.5-2 µM
[18] = tested on: SW1990; test: Induction of apoptosis in human SW1990 cells assessed as early apoptotic cells at 0.5 uM incubated for 6 days by Annexin V/PI staining based flow cytometry (reference value: 4.55 %); type: functional; conditions: time 6 day
[19] = tested on: SW1990; test: Induction of apoptosis in human SW1990 cells assessed as early apoptotic cells at 1 uM incubated for 6 days by Annexin V/PI staining based flow cytometry (reference value: 4.55 %); type: functional; conditions: time 6 day
[20] = tested on: SW1990; test: Induction of cell cycle arrest at G0/G1 phase in human SW1990 cells at 0.5 uM incubated for 6 days by PI staining based flow cytometry (reference value: 49.65 %); type: functional; conditions: time 6 day
[21] = tested on: SW1990; test: Induction of cell cycle arrest at G2/M phase in human SW1990 cells at 0.5 uM incubated for 6 days by PI staining based flow cytometry (reference value: 29.15 %); type: functional; conditions: time 6 day
[22] = tested on: SW1990; test: Antitumor activity against human SW1990 cells xenografted in BALB/c nude mouse model assessed as decrease in CD44 level at 30 to 60 mg/kg, ip for 21 days consecutively by IHC analysis; type: functional, organism-based; conditions: dose 30-60 mg/kg, time 21.0 day
[23] = tested on: HCT-116; test: Antiproliferative activity against human HCT-116 cells assessed as inhibition cell proliferation incubated for 6 days by MTT assay; type: functional, cell-based; conditions: HCT-116, 144 h
[24] = tested on: SW1990; test: Antitumor activity in human SW1990 cells assessed as decrease in CD44 level at 0.5 to 2 uM by immunofluorescence based analysis; type: functional, cell-based; conditions: dose 0.5-2 µM
[25] = tested on: SW1990; test: Induction of cell cycle arrest at G2/M phase in human SW1990 cells at 2 uM incubated for 6 days by PI staining based flow cytometry (reference value: 29.15 %); type: functional; conditions: time 6 day

In the case of `COc1cc(N2CCN(C)CC2)ccc1Nc1nc(Nc2ccccc2S(=O)(=O)C(C)C)c2nc[nH]c2n1`, the Activity [1] is reported as “Non-Toxic”, the Activity [2] is reported as 11.39% and the Activity [3] is reported as 63.14%. The Activity [4] was “Non-Toxic”, the Activity [5] was “Active” and the Activity [6] was “Dose-Dependent Effect”. It also gave an IC50 [7] of 600 nM, an Activity [8] of 6.77% and an Activity [9] of 5.86%. The inhibition [10] was 29.8%, the Activity [11] was 8.2% and the Activity [12] was “Active”. The half-life at 1 µM [13] was 45.9 min, the Activity [14] was “Toxic” and the Activity [15] was 19.75%. For the same compound, the inhibition [16] was “Dose-Dependent Effect”, the inhibition [17] was “Active” and the Activity [18] was 9.19%. For the same compound, the Activity [19] was 19.46%, the Activity [20] was 52.79% and the Activity [21] was 27.55%. For the same compound, the Activity [22] was “Active”, the IC50 [23] was 3000 nM and the Activity [24] was “Active”. For the same compound, the Activity [25] was 22.63%.

Source: ChEMBL document CHEMBL5634144, “Design, synthesis and biological evaluation of novel DCLK1 inhibitor containing purine skeleton for the treatment of pancreatic cancer” (Eur J Med Chem, 2023)
